This assay has as its target T1, human subtype 5 somatostatin receptor (Homo sapiens, UniProt P35346).
T1 construct: host or cells: CHO cell line, stably transfected; membranes
In words: Binding of 125-I-labeled 11-Tyr somatostatin-14 tracer to membranes of CHO cells expressing SSTR5. The note with it: CHO cell membranes, Ki calculated from IC50 by Cheng-Prussoff equation. The procedure: A CHO cell line stably transfected with a plasmid encoding the human subtype 5 somatostatin receptor (GenBank accession number D16827) was obtained from Euroscreen. Cells were cultured and used for binding and functional assays.
Membranes of these cells were prepared by sonication in the presence of protease inhibitors and subsequent fractionating centrifugation. The protein concentration in the membrane preparation was determined using a commercial kit (BCA kit, Pierce, USA). Membranes were stored at −80° C. until use. After thawing, membranes were diluted in assay buffer (50 mM TRIS-HCl at pH 7.4, 5 mM MgCl2 and 0.20% BSA (bovine serum albumine)) and subjected to dounce homogenization.
For binding studies, 0.1 ml membrane suspension, corresponding to app. 6×10^−15 mol receptor, was incubated for 1 hour at room temperature with 0.05 nM ^125-I-labeled tracer (11-Tyr somatostatin-14, Perkin-Elmer) and either test compounds in varying concentrations or, for the determination of non-specific binding, 0.001 mM non-labeled somatostatin-14 (Sigma-Aldrich, Buchs, Switzerland). The incubation was stopped by filtration through GF/B glassfiber filters (Unifilter, Perkin-Elmer) and washing with ice-cold wash buffer (50 mM Tris-HCl at pH 7.4). The bound radioactivity was measured after application of a scintillation cocktail (Microscint 40, Perkin-Elmer) and expressed as disintegrations per minute (dpm).
The receptor concentration was determined in a prior saturation experiment where a fixed, arbitrary amount of membranes was incubated with a concentration range of radio-labeled tracer. This allows estimating the total number of specific binding sites per amount of protein (i.e. Bmax), typically between 1 and 5 pmol/mg.
The concentration of the test compound required to result in half maximal inhibition of binding of the radio-labeled tracer (IC50) was estimated from a concentration-versus-dpm graph. The binding affinity (Ki) was calculated from the IC50 by applying the Cheng-Prussoff equation for single binding sites.
T1 sequence (P35346 whole entry): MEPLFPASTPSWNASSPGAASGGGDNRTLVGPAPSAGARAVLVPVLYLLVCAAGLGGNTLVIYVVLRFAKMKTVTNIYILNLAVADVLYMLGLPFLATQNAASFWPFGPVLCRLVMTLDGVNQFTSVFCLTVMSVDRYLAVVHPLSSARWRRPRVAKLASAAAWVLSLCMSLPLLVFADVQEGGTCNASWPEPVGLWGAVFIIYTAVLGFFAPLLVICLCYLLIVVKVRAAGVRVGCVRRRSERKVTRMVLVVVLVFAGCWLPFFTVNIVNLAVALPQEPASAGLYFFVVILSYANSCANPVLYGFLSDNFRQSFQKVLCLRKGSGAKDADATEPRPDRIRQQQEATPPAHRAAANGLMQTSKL
Usually Ki stands for the dissociation constant of the complex between target and ligand, obtained from inhibition or displacement. For `CCOc1cc(CN2CCC(NC(=O)c3cccc(C(N)=O)c3)CC2)ccc1Cl` [Example 6], the Ki is 126 nM. To `CCOc1cc(CN2CCC(NC(=O)c3cncc(C)c3)CC2)ccc1Cl` [Example 30, N-[1-(4-Chloro-3-ethoxy-benzyl)piperidin-4-yl]-5-methyl-nicotinamide] belongs 38 nM.

As to `CCOC(=O)c1c(OCC)cc(CN2CCC(NC(=O)c3cncc(C)c3)CC2)cc1OCC` [Example 35, N-[1-(3,5-Diethoxy-4-ethoxycarbonyl-benzyl)piperidin-4-yl]-5-methyl-nicotinamide], the Ki was 19 nM.

The record behind these values is US7772253B2 (Hoffman-La Roche Inc., priority 2005, dated 2010).
